In ChEMBL document CHEMBL5260848, “Recent advancements in the development of bioactive pyrazoline derivatives” (Eur J Med Chem, 2020):
Converted amounts (≈) assume the structure as drawn.

Assays:
[1] = system: ECa-109 cell line; assay: Anticancer activity against human Eca-109 cells by MTS assay; assay type: functional, cell-based
[2] = Anticancer activity against human HCC446 cells by MTS assay; assay type: functional, cell-based
[3] = system: AGS; assay: Anticancer activity against human AGS cells by MTS assay; assay type: functional, cell-based
[4] = species on record: Mus musculus; assay: Antidepressant activity in Swiss albino mouse assessed as decrease in duration of immobility by tail suspension test relative to control; assay type: functional; set-up: scale not given: the % may be the effect or the level left
[5] = system: Mus musculus; assay: Antidepressant activity in Swiss albino mouse assessed as decrease in duration of immobility at 100 mg/kg, po by forced swimming test relative to control; assay type: functional; set-up: scale not given: the % may be the effect or the level left
[6] = species on record: Mus musculus; assay: Antidepressant activity in mouse assessed as […] by tail suspension test; assay type: functional
[7] = species on record: Mus musculus; assay: Antidepressant activity in mouse assessed as […] by forced swimming test; assay type: functional
[8] = species on record: Mus musculus; assay: Antianxiety activity in mouse assessed as increase in number of entries in different arms; assay type: functional
[9] = system: Bordetella bronchiseptica; assay: Antibacterial activity against Bordetella bronchiseptica ATCC 4617 by plate dilution method; assay type: functional
[10] = system: Candida albicans; assay: Antifungal activity against Candida albicans ATCC 2091 by plate dilution method relative to control; assay type: functional
[11] = system: Aspergillus niger; assay: Antifungal activity against Aspergillus niger MTCC 281 by plate dilution method relative to control; assay type: functional
[12] = system: Aspergillus flavus; assay: Antifungal activity against Aspergillus flavus MTCC 277 by plate dilution method relative to control; assay type: functional
[13] = system: Monascus purpureus; assay: Antifungal activity against Monascus purpureus MTCC 369 by plate dilution method relative to control; assay type: functional
[14] = system: Penicillium citrinum; assay: Antifungal activity against Penicillium citrinum NCIM 768 by plate dilution method relative to control; assay type: functional
[15] = system: Staphylococcus aureus; assay: Antibacterial activity against Staphylococcus aureus ATCC 25923 by plate dilution method; assay type: functional
[16] = system: Enterococcus faecalis; assay: Antibacterial activity against Enterococcus faecalis ATCC 29212 by plate dilution method; assay type: functional
[17] = system: Staphylococcus epidermidis; assay: Antibacterial activity against Staphylococcus epidermidis ATCC 12228 by plate dilution method; assay type: functional
[18] = system: Bacillus subtilis; assay: Antibacterial activity against Bacillus subtilis ATCC 6633 by plate dilution method; assay type: functional
[19] = system: Bacillus cereus; assay: Antibacterial activity against Bacillus cereus ATCC 9946 by plate dilution method; assay type: functional
[20] = system: Escherichia coli; assay: Antibacterial activity against Escherichia coli ATCC 25922 by plate dilution method; assay type: functional
[21] = system: Pseudomonas aeruginosa; assay: Antibacterial activity against Pseudomonas aeruginosa ATCC 27853 by plate dilution method; assay type: functional
[22] = system: Klebsiella pneumoniae; assay: Antibacterial activity against Klebsiella pneumoniae ATCC 700603 by plate dilution method; assay type: functional
[23] = system: Proteus vulgaris; assay: Antibacterial activity against Proteus vulgaris ATCC 9920 by plate dilution method; assay type: functional
[24] = system: Aspergillus clavatus; assay: Antifungal activity against Aspergillus clavatus; assay type: functional
[25] = system: Candida albicans; assay: Antifungal activity against Candida albicans; assay type: functional
[26] = system: Aspergillus niger; assay: Antifungal activity against Aspergillus niger; assay type: functional
[27] = system: Streptococcus pyogenes; assay: Antibacterial activity against Streptococcus pyogenes assessed as inhibition of microbial growth; assay type: functional
[28] = system: Staphylococcus aureus; assay: Antibacterial activity against Staphylococcus aureus assessed as inhibition of microbial growth; assay type: functional
[29] = molecular target: Carbonic anhydrase 1 (Homo sapiens, UniProt P00915); assay: Inhibition of human CA1 by UV spectrophotometric analysis
Sequence of Carbonic anhydrase 1 (P00915 whole entry): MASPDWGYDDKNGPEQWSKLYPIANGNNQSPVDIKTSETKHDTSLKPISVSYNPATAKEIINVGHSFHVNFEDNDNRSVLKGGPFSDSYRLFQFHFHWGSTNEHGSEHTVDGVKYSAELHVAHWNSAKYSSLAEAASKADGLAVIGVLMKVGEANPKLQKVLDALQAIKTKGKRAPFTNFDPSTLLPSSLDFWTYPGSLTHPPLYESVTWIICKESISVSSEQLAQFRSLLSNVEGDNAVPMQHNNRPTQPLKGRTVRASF

[30] = molecular target: Carbonic anhydrase 2 (Homo sapiens, UniProt P00918); assay: Inhibition of human CA2 by UV spectrophotometric analysis
[31] = molecular target: Acetylcholinesterase (Homo sapiens, UniProt P22303)
Sequence of Acetylcholinesterase (P22303 whole entry): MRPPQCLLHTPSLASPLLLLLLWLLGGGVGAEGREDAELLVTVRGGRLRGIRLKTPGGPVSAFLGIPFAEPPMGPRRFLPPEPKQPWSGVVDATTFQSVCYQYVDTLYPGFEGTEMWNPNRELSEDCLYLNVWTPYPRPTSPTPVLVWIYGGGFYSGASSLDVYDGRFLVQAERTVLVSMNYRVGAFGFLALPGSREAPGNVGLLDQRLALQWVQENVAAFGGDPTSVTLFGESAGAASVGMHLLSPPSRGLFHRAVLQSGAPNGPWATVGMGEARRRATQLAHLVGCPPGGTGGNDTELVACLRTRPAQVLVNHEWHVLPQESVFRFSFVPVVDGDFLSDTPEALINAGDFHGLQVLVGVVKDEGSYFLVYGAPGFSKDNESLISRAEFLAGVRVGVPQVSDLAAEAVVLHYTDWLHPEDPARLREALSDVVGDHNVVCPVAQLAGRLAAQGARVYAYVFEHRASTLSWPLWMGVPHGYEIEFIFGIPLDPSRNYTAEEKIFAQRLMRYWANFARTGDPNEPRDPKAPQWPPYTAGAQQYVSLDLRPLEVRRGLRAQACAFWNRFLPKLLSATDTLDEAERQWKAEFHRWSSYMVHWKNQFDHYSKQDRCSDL

[32] = system: Mus musculus; assay: Anticonvulsant activity in BALB/c mouse assessed as increase in survival rate at 60 mg/kg, ip by PTZ method relative to control; assay type: functional
[33] = system: ASPC1; assay: Cytotoxicity against human ASPC1 cells; assay type: functional, cell-based
[34] = Cytotoxicity against human PBMC cells; assay type: functional, cell-based
[35] = system: Jurkat; assay: Cytotoxicity against human Jurkat T cells; assay type: functional, cell-based
[36] = species on record: Mus musculus; assay: Antidepressant activity in Swiss albino mouse assessed as decrease in immobility time by forced swimming test; assay type: functional
[37] = species on record: Mus musculus; assay: Antidepressant activity in Swiss albino mouse assessed as decrease in immobility time by tail suspension test; assay type: functional
[38] = system: Mycobacterium tuberculosis; assay: Antimycobacterial activity against Mycobacterium tuberculosis; assay type: functional
[39] = system: Mycolicibacterium smegmatis; assay: Antimycobacterial activity against Mycobacterium smegmatis; assay type: functional
[40] = system: Staphylococcus aureus; assay: microbe, parasite or virus in culture
[41] = system: Candida albicans; assay: microbe, parasite or virus in culture
[42] = system: A549; assay: Cytotoxicity against human A549 cells by SRB assay; assay type: functional
[43] = system: HeLa; assay: Cytotoxicity against human HeLa cells by SRB assay; assay type: functional
[44] = system: DU-145; assay: Cytotoxicity against human DU-145 cells by SRB assay; assay type: functional
[45] = system: HepG2; assay: Cytotoxicity against human HepG2 cells by SRB assay; assay type: functional
[46] = system: Escherichia coli; assay: Antibacterial activity against Escherichia coli by agar dilution method; assay type: functional
[47] = system: Pseudomonas aeruginosa; assay: Antibacterial activity against Pseudomonas aeruginosa by agar dilution method; assay type: functional
[48] = system: Staphylococcus aureus; assay: Antibacterial activity against Staphylococcus aureus by agar dilution method; assay type: functional
[49] = system: Bacillus subtilis; assay: Antibacterial activity against Bacillus subtilis by agar dilution method; assay type: functional
[50] = system: Escherichia coli; assay: Potency index, ratio of ampicillin MIC to compound MIC for Escherichia coli by agar dilution method; assay type: functional
[51] = system: Staphylococcus aureus; assay: Potency index, ratio of ampicillin MIC to compound MIC for Staphylococcus aureus by agar dilution method; assay type: functional
[52] = system: Candida albicans; assay: Antifungal activity against Candida albicans by agar dilution method; assay type: functional
[53] = Antioxidant activity assessed as DPPH radical scavenging activity; assay type: functional
[54] = system: Bacillus subtilis; assay: Potency index, ratio of ampicillin MIC to compound MIC for Bacillus subtilis by agar dilution method; assay type: functional
[55] = system: Aspergillus niger; assay: Antifungal activity against Aspergillus niger by agar dilution method; assay type: functional
[56] = system: Plasmodium falciparum; assay: Antimalarial activity against chloroquine-sensitive Plasmodium falciparum 3D7; assay type: functional, organism-based
[57] = system: Staphylococcus aureus; assay: Antibacterial activity against Staphylococcus aureus; assay type: functional
[58] = system: Escherichia coli; assay: Antibacterial activity against Escherichia coli; assay type: functional
[59] = system: Rhizopus arrhizus; assay: Antifungal activity against Rhizopus oryzae; assay type: functional
[60] = system: MCF7; assay: Cytotoxicity against human MCF7 cells; assay type: functional, cell-based
[61] = system: MCF7; assay: Antitumor activity in human MCF7 cells xenografted in mouse model assessed as tumor volume measured after 12 days relative to control; assay type: functional; settings: time 12 day
[62] = system: Rattus norvegicus; assay: Antiinflammatory activity in carrageenan induced rat paw edema model relative to indomethacin; assay type: functional

Work on `C[C@]12CCC3(CC1=CCC1C2CC[C@]2(C)C4=NN[C@H](c5ccccc5)[C@H]4CC12)OCCO3` (some centres not stated) yielded an IC50 [1] of 17.5 µM, an IC50 [2] of 25.3 µM and an IC50 [3] of 27.4 µM.
Compound `CN(C)CCCN1c2ccccc2CCc2ccccc21` [IMIPRAMINE] has an Activity [4] of 61.96%, an Activity [5] of 62.12% and a Time [6] of 29.33 s. For the same compound, the Time [7] was 29.33 s and the Activity [8] was -9.33.
For `O=c1oc2ccc(F)cc2cc1-c1csc(N2N=C(c3ccc(F)cc3)CC2c2cc3ccccc3nc2Cl)n1` (configuration not stated), the MIC [9] was 50 µg/mL (≈ 87.6 µM), the Activity [10] was 98.95% and the Activity [11] was 83.59%. It also gave an Activity [12] of 98%, an Activity [13] of 79.72% and an Activity [14] of 91.42%. For the same compound, the MIC [15] was 50 µg/mL (≈ 87.6 µM), the MIC [16] was 50 µg/mL (≈ 87.6 µM) and the MIC [17] was 50 µg/mL (≈ 87.6 µM). The MIC [18] was 50 µg/mL (≈ 87.6 µM), the MIC [19] was 50 µg/mL (≈ 87.6 µM) and the MIC [20] was 50 µg/mL (≈ 87.6 µM). The MIC [21] was 50 µg/mL (≈ 87.6 µM), the MIC [22] was 50 µg/mL (≈ 87.6 µM) and the MIC [23] was 50 µg/mL (≈ 87.6 µM).
`O=C(c1ccncc1)N1N=C(c2ccc(Cl)cc2Cl)CC1c1cc2ccccc2nc1Cl` (configuration not stated) showed an MIC [24] of 50 µg/mL (≈ 104 µM), an MIC [25] of 12.5 µg/mL (≈ 25.9 µM) and an MIC [26] of 12.5 µg/mL (≈ 25.9 µM). It also gave an MIC [27] of 12.5 µg/mL and an MIC [28] of 12.5 µg/mL.
For `COc1ccc(C2CC(c3ccc(Cl)cc3)=NN2c2ccc(S(N)(=O)=O)cc2)cc1OC` (configuration not stated), the Ki [29] was 0.0279 µM, the Ki [30] was 0.0274 µM and the Ki [31] was 0.0377 µM.
In the case of `O=C(Nc1ccc(Cl)cc1)N1N=C(c2ccc(Br)s2)CC1c1c(Cl)cccc1Cl` (configuration not stated), the survival at 60 mg/kg [32] is reported as 95%.
Compound `Cc1ccc(-c2nnc(SCC(=O)N3N=C(c4cccs4)CC3c3ccc(Cl)cc3)o2)cc1` (configuration not stated) has an IC50 [33] of 16.8 µM, an IC50 [34] of 1000 µM and an IC50 [35] of 90 µM.
Work on `COc1cc(C2CC(c3ccc(-c4cc(F)cc(F)c4)nc3C)=NN2)cc(OC)c1OC` (configuration not stated) yielded an Activity [4] of 64.56%, an Activity [5] of 66.58% and a Time [36] of 66.67 s. The Time [37] was 70.33 s.
`Clc1ccc(-n2cc(C3CC(c4ccc(-c5ccccc5)cc4)=NN3)c(-c3cccs3)n2)cc1` (configuration not stated) showed an MIC [38] of 1.56 µg/mL (≈ 3.24 µM), an MIC [39] of 7.8 µg/mL (≈ 16.2 µM) and an MIC [40] of 1.56 µg/mL (≈ 3.24 µM). It also gave an MIC [41] of 1.56 µg/mL (≈ 3.24 µM).
`COc1ccc(C2CC(c3cc(OC)c(OC)c(OC)c3)=NN2C(C)=O)cc1OCc1cn(Cc2ccc(F)c(Cl)c2)nn1` (configuration not stated) showed a GI50 [42] of 7 µM, a GI50 [43] of 7 µM and a GI50 [44] of 7 µM. The GI50 [45] was 7 µM.
For `COc1ccc2c(c1)cc(C1CC(c3cc(Br)ccc3O)=NN1)c1nnnn12` (configuration not stated), the MIC [46] was 50 µg/mL (≈ 114 µM), the MIC [47] was 25 µg/mL (≈ 56.9 µM) and the MIC [48] was 50 µg/mL (≈ 114 µM). The MIC [49] was 25 µg/mL (≈ 56.9 µM), the Ratio [50] was 2 and the Ratio [51] was 10. It also gave an MIC [52] of 25 µg/mL (≈ 56.9 µM) and an IC50 [53] of 21 µg/mL (≈ 47.8 µM).
`COc1cccc2cc(/C=C/C(=O)c3cc(Br)ccc3O)c3nnnn3c12` showed an MIC [46] of 50 µg/mL (≈ 118 µM), an MIC [47] of 25 µg/mL (≈ 58.8 µM) and an MIC [48] of 50 µg/mL (≈ 118 µM). The MIC [49] was 50 µg/mL (≈ 118 µM), the Ratio [50] was 2 and the Ratio [51] was 5. It also gave a Ratio [54] of 5, an MIC [52] of 25 µg/mL (≈ 58.8 µM) and an MIC [55] of 25 µg/mL (≈ 58.8 µM). The IC50 [53] was 22.4 µg/mL (≈ 52.7 µM).
`COc1cc(C2CC(c3cc4ccccc4oc3=O)=NN2c2ccccc2)cc(OC)c1OC` (configuration not stated) gave an IC50 [56] of 11.6 µg/mL (≈ 25.5 µM), an MIC [57] of 10 µg/mL (≈ 21.9 µM) and an MIC [58] of 12.5 µg/mL (≈ 27.4 µM). The MIC [59] was 12.5 µg/mL (≈ 27.4 µM).
Compound `O=C(c1ccncc1)N1N=C(c2ccc([N+](=O)[O-])cc2)CC1c1cc2ccccc2nc1Cl` (configuration not stated) has an MIC [24] of 12.5 µg/mL (≈ 27.3 µM), an MIC [25] of 12.5 µg/mL (≈ 27.3 µM) and an MIC [26] of 12.5 µg/mL (≈ 27.3 µM). The MIC [27] was 12.5 µg/mL and the MIC [28] was 12.5 µg/mL.
Work on `CC(=O)Oc1ccc2c(c1)CC[C@@H]1[C@@H]2CC[C@]2(C)C3=NN(c4ccccc4)C(c4cccs4)C3C[C@@H]12` (some centres not stated) yielded an IC50 [60] of 0.043 µM and an Activity [61] of 87%.
With `COc1ccc(N2N=C(/C=C/c3ccc(C)o3)CC2c2ccc(C)o2)cc1` (configuration not stated) the Activity [62] was 104%.
